Test: Particle size of the drug particles used (electron microscope, 200 particles)
Format: physicochemical
Conditions: drug particles before incorporation
Description: The various drug particles used in the Examples and Comparative Examples were obtained passing the powder through a 32 μm, 50 μm or 90 μm sieve after pulverization, or obtained fine particles by a jet mill (product of Hosokawa Micron Group, spiral jet mill model 50AS) or a spray dryer (product of Büchi Labortechnik AG, mini spray dryer model B-290) after pulverization. The particle sizes of these drug particles was measured by electron microscope (product of Hitachi High-Technologies Corp., model TM-1000) and the 50 vol % average particle size was calculated from the measurement results of 200 particles. This value was used as the particle size index of the particles.

| SMILES | 50 vol % average particle size |
| --- | --- |
| COc1ccc2c(c1)c(CC(=O)O)c(C)n2C(=O)c1ccc(Cl)cc1 [Indomethacin particles, Indomethacin] | 1.8 um |
| CC(C(=O)O)c1cccc(C(=O)c2ccccc2)c1 (centres unmarked) [Ketoprofen particles, Ketoprofen] | 1.7 um |
| COc1ccc2[nH]cc(CCNC(C)=O)c2c1 [Melatonin particles A, Melatonin] | 2.1 um |

Continued, values first:

| 50 vol % average particle size | SMILES |
| --- | --- |
| 28.4 um | COc1ccc2[nH]cc(CCNC(C)=O)c2c1 [Melatonin particles B, Melatonin] |
| 180.5 um | COc1ccc2[nH]cc(CCNC(C)=O)c2c1 [Melatonin particles C, Melatonin] |

Reference: patent US20110244047A1, “FILM-FORM PREPARATION AND METHOD FOR PRODUCING THE SAME” (NITTO DENKO CORPORATION, priority 2010, published 2011)
